Measurements as given in US20230094922A1, “METHODS OF THERAPEUTIC PROGNOSTICATION” (GENETIKAPLUS LTD., priority 2020, published 2023).

Test system: iPSC-derived cortical neurons
Type: cell-based
[1] = responders vs non-responders after 10 μM Bupropion, NS

CC(NC(C)(C)C)C(=O)c1cccc(Cl)c1 (stereo not drawn) [Bupropion, 3-Chloro-N-tert-butyl-β-keto-α-methylphenethylamin]
number of genes significantly downregulated in responders as compared to non-responders (10 μm Bupropion, p<0.01, Table 4): 174 genes | number of genes significantly upregulated in responders as compared to non-responders after treatment (10 μm Bupropion, p<0.01, over 60,000 genes probed): 69 genes | logFC ABLIM2 [1]: −1.305 | logFC ABLIM3 [1]: −2.05 | logFC ACTL6B [1]: −1.577 | logFC ADCY1 [1]: −1.308 | logFC ADCY5 [1]: −1.299 | logFC ADCYAP1R1 [1]: −1.154 | logFC ADD2 [1]: −0.7958 | logFC ADGRB3 [1]: −1.496 | logFC ADRA1B [1]: −2.202 | logFC AGAP2 [1]: −1.343 | logFC AK5 [1]: −1.456 | logFC AKAP6 [1]: −1.215 | logFC AKR1C2 [1]: −1.478 | logFC ALPK3 [1]: −1.224 | logFC AMER3 [1]: −1.722 | logFC ANK1 [1]: −1.875 | logFC ANK2 [1]: −0.959 | logFC ANK3 [1]: −1.262 | logFC ANKH [1]: −0.9269 | logFC ANKRD30BL [1]: −2.897 | logFC ANKRD53 [1]: −1.517 | logFC ANKRD55 [1]: −1.879 | logFC AP3B2 [1]: −1.482 | logFC APBB1 [1]: −0.8199 | logFC APC [1]: −0.916 | logFC APLP1 [1]: −1.076 | logFC ARHGAP20 [1]: −2.01 | logFC ARHGAP26 [1]: −0.7629 | logFC ARHGAP33 [1]: −0.9502 | logFC ARHGAP36 [1]: −2.569 | logFC ARPP21 [1]: −3.247 | logFC ASB8 [1]: −0.7127 | logFC ASIC4 [1]: −1.72 | logFC ATAT1 [1]: −0.8189 | logFC ATCAY [1]: −1.047 | logFC ATP1A3 [1]: −1.336 | logFC ATP2B3 [1]: −1.771 | logFC ATP6V0A1 [1]: −0.6012 | logFC ATP6V0E2 [1]: −1.011 | logFC B3GALNT1 [1]: −2.052 | logFC B3GALT2 [1]: −1.685 | logFC BASP1 [1]: −0.8607 | logFC BINI [1]: −0.8522 | logFC BMERB1 [1]: −0.8373 | logFC BRINP1 [1]: −1.623 | logFC BRSK1 [1]: −0.753 | logFC BSN [1]: −1.599 | logFC C1orf216 [1]: −1.465 | logFC C4orf50 [1]: −1.94 | logFC CA10 [1]: −2.576 | logFC CACNA1B [1]: −1.253 | logFC CACNB1 [1]: −1.261 | logFC CACNB3 [1]: −0.6878 | logFC CACNG2 [1]: −1.666 | logFC CACNG3 [1]: −1.337 | logFC CADM3 [1]: −1.659 | logFC CADM4 [1]: −0.6745 | logFC CALB2 [1]: −1.647 | logFC CAMK1D [1]: −0.9513 | logFC CAMK2B [1]: −1.689 | logFC CAMSAP3 [1]: −0.8932 | logFC CASKIN1 [1]: −0.9781 | logFC CCDC141 [1]: −2.886 | logFC CCDC184 [1]: −1.385 | logFC CDH7 [1]: −1.611 | logFC CDH12 [1]: −2.03 | logFC CDK5R1 [1]: −1.375 | logFC CELF3 [1]: −1.26 | logFC CELF4 [1]: −1.812 | logFC CEP170B [1]: −0.6703 | logFC CEP295NL [1]: −1.321 | logFC CHGA [1]: −1.543 | logFC CHGB [1]: −1.246 | logFC CHRFAM7A [1]: −1.645 | logFC CHRM2 [1]: −2.12 | logFC CHRNA1 [1]: −2.49 | logFC CHRNA4 [1]: −1.718 | logFC CHRNB2 [1]: −1.815 | logFC CHST1 [1]: −1.711 | logFC CLASP2 [1]: −0.7536 | logFC CLCN4 [1]: −0.8168 | logFC CLDN5 [1]: −1.453 | logFC CLIP2 [1]: −0.856 | logFC CLSTN3 [1]: −0.8161 | logFC CMIP [1]: −0.6391 | logFC CNTN1 [1]: −1.722 | logFC CORO2B [1]: −1.199 | logFC CPLX1 [1]: −1.467 | logFC CPLX2 [1]: −1.647 | logFC CRB1 [1]: −1.691 | logFC CREG2 [1]: −1.282 | logFC CRMP1 [1]: −1.121 | logFC CSMD1 [1]: −1.31 | logFC CTNND2 [1]: −1.034 | logFC CXCL11 [1]: −2.544 | logFC CYGB [1]: −1.896 | logFC DAAM1 [1]: −0.6945 | logFC DBNDD1 [1]: −0.8117 | logFC DCLK2 [1]: −1.477 | logFC DES [1]: −2.44 | logFC DIRAS1 [1]: −1.66 | logFC DIRAS2 [1]: −1.952 | logFC DISP2 [1]: −1.757 | logFC DKK3 [1]: −1.052 | logFC DMTN [1]: −1.522 | logFC DOK5 [1]: −1.085 | logFC DPF1 [1]: −1.34 | logFC DPP10 [1]: −1.13 | logFC DPYSL4 [1]: −1.082 | logFC DRD2 [1]: −1.595 | logFC DSCAML1 [1]: −1.404 | logFC DTX1 [1]: −1.204 | logFC EBF1 [1]: −1.335 | logFC ELAVL4 [1]: −1.326 | logFC ELFN2 [1]: −1.113 | logFC EPB41L1 [1]: −0.9134 | logFC EPHA8 [1]: −1.345 | logFC ERAP2 [1]: −2.32 | logFC ETFB [1]: −1.045 | logFC EVI5L [1]: −0.9714 | logFC EYA1 [1]: −0.8128 | logFC F7 [1]: −1.608 | logFC FAIM2 [1]: −1.923 | logFC FAM131B [1]: −0.8962 | logFC FAM219A [1]: −0.8506 | logFC FAM222A [1]: −1.164 | logFC FAR2 [1]: −1.384 | logFC FAXC [1]: −0.9556 | logFC FBXO41 [1]: −0.97 | logFC FGF14 [1]: −1.149 | logFC FMN2 [1]: −1.148 | logFC FRMD5 [1]: −0.7871 | logFC FRMPD4 [1]: −2.13 | logFC FSTL4 [1]: −1.8 | logFC FSTL5 [1]: −1.624 | logFC GABBR2 [1]: −2.251 | logFC GABRG3 [1]: −1.687 | logFC GABRR1 [1]: −2.904 | logFC GAD2 [1]: −1.46 | logFC GALNT9 [1]: −1.69 | logFC GALNTL6 [1]: −1.861 | logFC GAP43 [1]: −1.304 | logFC GCK [1]: −1.587 | logFC GDPD5 [1]: −1.245 | logFC GFOD1 [1]: −1.12 | logFC GLRA1 [1]: −2.174 | logFC GLRA2 [1]: −1.929 | logFC GLRA3 [1]: −3.119 | logFC GMIP [1]: −0.765 | logFC GNAO1 [1]: −1.181 | logFC GOLGA7B [1]: −1.854 | logFC GPR26 [1]: −2.221 | logFC GPR139 [1]: −1.695 | logFC GPR158 [1]: −1.27 | logFC GPRIN1 [1]: −1.521 | logFC GPSM1 [1]: −0.733 | logFC GRIA4 [1]: −1.263 | logFC GRIK2 [1]: −1.1 | logFC GRIN1 [1]: −1.919 | logFC HECW1 [1]: −1.709 | logFC HERC1 [1]: −0.5953 | logFC HID1 [1]: −0.975 | logFC HK1 [1]: −0.5528 | logFC HRH3 [1]: −1.315 | logFC HTR5A [1]: −2.98 | logFC IFI27 [1]: −1.463 | logFC IFIT5 [1]: −0.8218 | logFC IGLON5 [1]: −0.9869 | logFC IGSF8 [1]: −0.6614 | logFC INA [1]: −1.425 | logFC INSM1 [1]: −1.183 | logFC ISL1 [1]: −2.075 | logFC ISLR2 [1]: −2.565 | logFC JAKMIP1 [1]: −1.737 | logFC KBTBD11 [1]: −1.03 | logFC KCNA2 [1]: −1.235 | logFC KCNC2 [1]: −2.213 | logFC KCNH6 [1]: −1.966 | logFC KCNIP1 [1]: −1.502 | logFC KCNJ3 [1]: −1.979 | logFC KCNJ6 [1]: −1.811 | logFC KCNJ9 [1]: −1.383 | logFC KCNK3 [1]: −2.03 | logFC KCNQ2 [1]: −1.053 | logFC KCNS2 [1]: −2.976 | logFC KIAA0513 [1]: −1.005 | logFC KIAA1755 [1]: −1.809 | logFC KIF3C [1]: −1.295 | logFC KIF5A [1]: −1.285 | logFC KIFAP3 [1]: −0.9071 | logFC KIRREL3 [1]: −1.338 | logFC KLHL1 [1]: −2.102 | logFC LG14 [1]: −0.9845 | logFC LGI2 [1]: −1.253 | logFC LGI3 [1]: −2.434 | logFC LHFPL4 [1]: −1.28 | logFC LMTK3 [1]: −0.9148 | logFC LRATD1 [1]: −1.429 | logFC LRFN2 [1]: −1.645 | logFC LRRC4C [1]: −1.523 | logFC LRRC7 [1]: −1.643 | logFC LRRC55 [1]: −1.342 | logFC LRRTM2 [1]: −1.587 | logFC LSM11 [1]: −0.7282 | logFC LZTS1 [1]: −1.332 | logFC MAP1A [1]: −1.103 | logFC MAPK8IP2 [1]: −1.461 | logFC MAPRE2 [1]: −0.7432 | logFC MAST1 [1]: −1.276 | logFC MFNG [1]: −1.262 | logFC MFSD6 [1]: −1.112 | logFC MKRN3 [1]: −1.448 | logFC MPO [1]: −2.163 | logFC MPP3 [1]: −1.029 | logFC MRAS [1]: −0.5698 | logFC MTMR7 [1]: −1.1 | logFC MTSS1 [1]: −0.9406 | logFC MX1 [1]: −1.291 | logFC MXRA7 [1]: −0.6421 | logFC MYL1 [1]: −4.411 | logFC NACAD [1]: −0.8329 | logFC NAP1L5 [1]: −0.871 | logFC NCAM1 [1]: −1.37 | logFC NCAM2 [1]: −1.147 | logFC NDRG4 [1]: −1.32 | logFC NECAP1 [1]: −0.6044 | logFC NEGR1 [1]: −1.829 | logFC NFASC [1]: −1.15 | logFC NHLH1 [1]: −1.305 | logFC NHLH2 [1]: −2.363 | logFC NKAIN4 [1]: −0.8753 | logFC NMNAT2 [1]: −1.044 | logFC NOVAI [1]: −0.9754 | logFC NPAS3 [1]: −1.402 | logFC NPM2 [1]: −1.674 | logFC NR1I3 [1]: −1.278 | logFC NRSN1 [1]: −1.718 | logFC NRXN1 [1]: −1.372 | logFC NSG1 [1]: −1.704 | logFC NSG2 [1]: −1.942 | logFC NTM [1]: −1.35 | logFC NTNG1 [1]: −1.193 | logFC NWD2 [1]: −2.251 | logFC NXPH4 [1]: −1.744 | logFC NYAP1 [1]: −0.9844 | logFC NYAP2 [1]: −2.578 | logFC OLFM2 [1]: −1.002 | logFC OTUD7A [1]: −1.036
